The values that follow come from paper PMC6442109, “Novel thienopyrimidine derivatives as dual EGFR and VEGFR-2 inhibitors: design, synthesis, anticancer activity and effect on cell cycle profile” (Journal of Enzyme Inhibition and Medicinal Chemistry, 2019).

One series concerns MCF-7 cell line. The experiment in a line: MTT anticancer activity assay against MCF-7. The settings on record: for IC50: Homo sapiens, MCF7, 48 h, read-out: IC50 on MCF-7 cell line. On the technique in general: Tetrazolium dyes change colour on reduction, which living cells bring about.
In series [1] the target is T1, recombinant human VEGFR-2/KDR (Homo sapiens, UniProt P35968).
T1 construct: purchased #7788
T1 sequence (P35968 20-1356): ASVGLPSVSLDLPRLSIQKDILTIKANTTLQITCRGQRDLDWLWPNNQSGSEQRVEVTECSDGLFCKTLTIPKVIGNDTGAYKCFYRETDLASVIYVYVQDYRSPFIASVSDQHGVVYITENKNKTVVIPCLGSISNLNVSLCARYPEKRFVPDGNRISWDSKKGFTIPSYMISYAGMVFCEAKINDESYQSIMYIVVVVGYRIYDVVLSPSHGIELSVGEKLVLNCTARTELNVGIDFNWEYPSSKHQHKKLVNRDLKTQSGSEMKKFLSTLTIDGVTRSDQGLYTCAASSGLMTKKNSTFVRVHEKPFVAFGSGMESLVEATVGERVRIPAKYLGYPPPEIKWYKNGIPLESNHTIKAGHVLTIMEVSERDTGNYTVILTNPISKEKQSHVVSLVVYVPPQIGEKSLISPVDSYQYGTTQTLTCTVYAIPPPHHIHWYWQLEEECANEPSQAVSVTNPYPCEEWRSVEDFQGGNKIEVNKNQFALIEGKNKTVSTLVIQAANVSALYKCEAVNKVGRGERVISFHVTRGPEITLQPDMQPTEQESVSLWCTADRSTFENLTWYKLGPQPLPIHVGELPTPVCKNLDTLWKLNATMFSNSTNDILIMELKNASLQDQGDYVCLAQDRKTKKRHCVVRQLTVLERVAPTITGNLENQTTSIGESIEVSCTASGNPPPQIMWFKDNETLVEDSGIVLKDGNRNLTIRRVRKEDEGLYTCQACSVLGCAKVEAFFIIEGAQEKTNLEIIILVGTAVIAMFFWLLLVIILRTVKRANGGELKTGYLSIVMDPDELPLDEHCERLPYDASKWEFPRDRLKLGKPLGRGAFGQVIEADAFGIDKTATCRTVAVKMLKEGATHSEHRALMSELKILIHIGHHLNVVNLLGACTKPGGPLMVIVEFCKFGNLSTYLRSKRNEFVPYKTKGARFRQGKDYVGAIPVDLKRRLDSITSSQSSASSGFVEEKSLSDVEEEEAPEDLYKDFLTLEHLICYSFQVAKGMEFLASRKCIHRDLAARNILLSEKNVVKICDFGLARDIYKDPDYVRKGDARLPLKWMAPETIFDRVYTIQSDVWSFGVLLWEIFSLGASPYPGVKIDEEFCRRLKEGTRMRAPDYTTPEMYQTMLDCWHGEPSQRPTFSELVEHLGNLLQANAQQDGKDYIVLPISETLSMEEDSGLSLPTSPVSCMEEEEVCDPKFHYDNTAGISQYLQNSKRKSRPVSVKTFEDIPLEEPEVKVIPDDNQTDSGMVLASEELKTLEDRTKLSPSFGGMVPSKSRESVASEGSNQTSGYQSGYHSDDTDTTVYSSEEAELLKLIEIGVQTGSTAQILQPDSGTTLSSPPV
The experiment in a line: In vitro VEGFR-2 kinase inhibitory assay (ELISA kit). The settings on record: mean of three experiments ± SD. It counts as biochemical. As to the method: About 10 µL of 10 mM ATP was added to 1.25 mL 6 µM substrate peptide followed by dilution of the mixture with distilled water to 2.50 mL to make 2× ATP/substrate cocktail ([ATP] = 40 µM, [substrate] = 3 µm). The enzyme was immediately transferred from –80 °C to ice and was allowed to thaw on ice. Microcentrifuge was performed briefly at 4 °C and returned immediately to ice. […] About 0.6 mL of DTT/Kinase buffer was transferred to each enzyme tube to make 4× reaction mixture. […] About 25 µL of 2× ATP/substrate cocktail was added to 25 µL/well pre-incubated reaction mixture/compound. Reaction plate was incubated at room temperature for 30 min. Then, 50 µL/well stop buffer (50 mM EDTA, pH 8) was added to stop the reaction. […] About 100 µL/well primary antibody was added and incubated at room temperature for 60 min followed by washing three times with 200 µL/well PBS/T.
Appropriate dilution of HRP labeled secondary antibody in PBS/T was prepared with 1% BSA (1:500 dilution for anti-mouse IgG or 1:1000 for anti-rabbit IgG). About 100 µL/well secondary antibody solution was added and incubated at room temperature for 30 min then washed five times with 200 µL/well PBS/T followed by addition of 100 µL/well 3,3′,5,5′-tetramethylbenzidine (TMB) substrate and incubation at room temperature for 15 min and finally addition of 100 µL/well of stop solution and mix well. The absorbance was read at 450 nm with a microtiter plate reader. The values of % activity versus a series of compound concentrations (0.01 µM–0.1 µM–1 µM–10 µM) was then plotted using non-linear regression analysis of sigmoidal dose-response curve.
(In general: An ELISA detects its analyte on a solid surface through an enzyme-linked reagent.)

For series [2], the target named is T2, EGFR (Homo sapiens, UniProt P00533). The experiment in a line: In vitro EGFR kinase inhibitory assay (Kinase-Glo luminescence kit). (Kinase-Glo measures the ATP left after a reaction by luminescence.)
T2 sequence (P00533 25-1210): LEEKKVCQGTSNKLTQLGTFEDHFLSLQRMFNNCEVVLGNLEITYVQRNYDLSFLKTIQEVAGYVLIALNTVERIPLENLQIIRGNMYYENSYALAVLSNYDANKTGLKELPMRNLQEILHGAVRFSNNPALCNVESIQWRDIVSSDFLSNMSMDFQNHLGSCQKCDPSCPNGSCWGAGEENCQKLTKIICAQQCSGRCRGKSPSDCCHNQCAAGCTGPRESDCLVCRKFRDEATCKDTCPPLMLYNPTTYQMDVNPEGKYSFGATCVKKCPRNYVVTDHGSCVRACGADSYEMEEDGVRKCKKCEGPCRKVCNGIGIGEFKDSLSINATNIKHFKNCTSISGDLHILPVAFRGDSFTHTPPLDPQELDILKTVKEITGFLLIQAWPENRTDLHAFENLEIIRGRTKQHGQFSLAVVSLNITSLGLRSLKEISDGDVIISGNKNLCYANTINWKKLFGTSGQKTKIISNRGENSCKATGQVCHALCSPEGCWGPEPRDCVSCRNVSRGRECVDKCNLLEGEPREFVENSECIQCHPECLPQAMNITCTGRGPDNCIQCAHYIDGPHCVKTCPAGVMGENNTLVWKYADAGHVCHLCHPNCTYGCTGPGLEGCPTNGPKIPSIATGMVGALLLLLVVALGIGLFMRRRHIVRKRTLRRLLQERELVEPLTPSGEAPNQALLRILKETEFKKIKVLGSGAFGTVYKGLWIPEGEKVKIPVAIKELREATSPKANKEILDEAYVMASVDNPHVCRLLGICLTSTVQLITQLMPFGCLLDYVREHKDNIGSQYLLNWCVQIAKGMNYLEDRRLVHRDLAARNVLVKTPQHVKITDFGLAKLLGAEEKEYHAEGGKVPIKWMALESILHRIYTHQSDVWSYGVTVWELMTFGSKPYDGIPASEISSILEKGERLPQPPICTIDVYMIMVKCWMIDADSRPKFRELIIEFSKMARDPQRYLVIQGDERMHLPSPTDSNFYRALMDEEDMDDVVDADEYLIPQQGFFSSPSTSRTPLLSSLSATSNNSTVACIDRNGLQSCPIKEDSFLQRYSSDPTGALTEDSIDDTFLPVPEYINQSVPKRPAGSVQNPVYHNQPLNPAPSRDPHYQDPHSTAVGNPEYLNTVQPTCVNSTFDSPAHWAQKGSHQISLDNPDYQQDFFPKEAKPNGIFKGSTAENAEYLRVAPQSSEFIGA
Description: All samples and controls were tested in triplicate. 5× Kinase assay buffer, ATP and 50× PTK substrate were thawed. The master mixture was constructed (25 µL per well), consequently 25 µL was added to every well. About 5 µL inhibitor solution was added to each well labeled as “Test Inhibitor” while for the “Positive control” and “Blank”, 5 µL of the buffer solution without inhibitor (Inhibitor buffer) was added.
About 3 mL of 1× kinase assay buffer was developed through mixing 600 µL of 5× kinase assay buffer with 2400 µL water. About 20 µL of 1× kinase assay buffer was added to the wells designated as “Blank”. EGFR enzyme was thawed on ice. Consequent to the first thaw, the tube containing enzyme was shortly spun so as to recover full content of the tube. The amount of EGFR required for the assay was calculated then the enzyme was diluted to 1 ng/µL with 1× kinase assay buffer. Reaction was initiated via addition of 20 µL of diluted EGFR enzyme to the wells designated “Positive Control” and “Test Inhibitor Control” then incubation at 30 °C for 40 min. Kinase-Glo Max reagent was thawed. After the 40 min reaction, 50 µL of Kinase-Glo Max reagent was added to each well. Plates were covered with aluminum foil and incubated at room temperature for 15 min. Finally, luminescence was measured using the microplate Robonik P2000 ELISA Reader (India).
Series [3] relates to MCF-10A (the human mammary epithelial cell line). The experiment in a line: MTT cytotoxicity on normal mammary epithelial cell line. As to conditions: for IC50: Homo sapiens, MCF-10A, read-out: IC50 on normal mammary epithelial cell line (MCF-10A); for Selectivity index: MCF-10A versus MCF-7 tumor cell line.
The test system of series [4] is MCF-7 cells. Put plainly: Annexin V-FITC/PI apoptosis detection. It counts as cell-based, human. The settings on record: MCF-7, 0.66 µM, 24 h. The method, then:
Apoptosis was evaluated utilizing Annexin V-FITC/PI apoptosis detection kit (Biovision, Mountain View, CA #K101-25) according to the manufacturer’s instructions after staining the cells with Annexin V fluorescein isothiocyanate (FITC) and counterstaining with propidium iodide (PI).
The cells then were centrifuged and in case of adherent cells, cells were gently trypsinized and washed once with serum-containing media followed by resuspension in 500 µL of binding buffer. About 5 µL of Annexin V-FITC and 5 µL of (PI […]) were added and incubated at room temperature for 5 min in the dark. Analyses were carried out using flow cytometer (Ex = 488 nm; Em = 530 nm) using FITC signal detector (usually FL1) and PI staining by the phycoerythrin emission signal detector (usually FL2).

For series [5], the system named is MCF-7 cells. Put plainly: Cell cycle analysis, propidium iodide flow cytometry. The class given is cell-based, human. As to conditions: 24 h. The method, then: Cell cycle were carried out using propidium iodide flow cytometry kit (Abcam, ab139418) according to the manufacturer’s instructions. The MCF-7 cells were treated with 0.66 µM of compound 5f for 24 h. Then, the cells were washed twice with ice-cold PBS, centrifuged and fixed using ice-cold 66% (v/v) ethanol, washed with PBS, re-suspended with 0.1 mg/mL RNase and stained with 200 µL propidium iodide (PI). Finally, cells were analyzed by flow cytometry. The cell cycle distributions were calculated using Cell-Quest software (Becton Dickinson). An interference with the normal cell cycle distribution resulted upon exposure of MCF-7 cells to this compound as indicated.

The target in series [6] is T2, EGFR. As to conditions: Figure 1 compounds I–VII; cited from earlier work.
Another series has as its system VEGFR-2. As to conditions: Figure 1 compounds I–VII; cited from earlier work.

Read-outs that look alike come from different tables or passages of the source. Some results are limits rather than exact numbers.

As a reminder, the melting point is the temperature, or range, at which the solid turns liquid. A word on the IC50: it is the concentration that inhibits the measured activity by half.

Compound `NS(=O)(=O)c1ccc(Nc2ncnc3sc4c(c23)CCCCC4)cc1` [Compound 4a, 4-((6,7,8,9-Tetrahydro-5H-cyclohepta[4,5]thieno[2,3-d]pyrimidin-4-yl)amino)benzenesulfonamide] gave a melting point of 271 to 272 °C. For the same compound, the IC50 in the series with MCF-7 cell line was determined as 39800 ± 4110 nM.

Regarding `O=S(=O)(Nc1ncccn1)c1ccc(Nc2ncnc3sc4c(c23)CCCCC4)cc1` [Compound 4b, N-(Pyrimidin-2-yl)-4-((6,7,8,9-tetrahydro-5H-cyclohepta[4,5]thieno[2,3-d]pyrimidin-4-yl)amino)benzenesulfonamide], the melting point was in the range of 243 to 245 °C. For the same compound, in the series with MCF-7 cell line, the IC50 was determined as 7120 ± 550 nM.

Compound `Cc1ccnc(NS(=O)(=O)c2ccc(Nc3ncnc4sc5c(c34)CCCCC5)cc2)n1` [Compound 4c, N-(4-Methylpyrimidin-2-yl)-4-((6,7,8,9-tetrahydro-5H-cyclohepta[4,5]thieno[2,3-d]pyrimidin-4-yl)amino)benzenesulfonamide] displayed a melting point of 260 to 262 °C. Also, the IC50 with MCF-7 cell line is 11000 ± 1240 nM.

Consider `Nc1cccc(Oc2ncnc3sc4c(c23)CCCCC4)c1` [Compound 5a, 3-((6,7,8,9-Tetrahydro-5H-cyclohepta[4,5]thieno[2,3-d]pyrimidin-4-yl)oxy)aniline], for which the melting point lay within 179 to 180 °C. Moreover, in series [1], the IC50 came to 1710 ± 62 nM. In addition, the IC50 against EGFR [2] was 70 ± 3 nM. For the same compound, in the series with MCF-7 cell line, the IC50 was 1980 ± 210 nM.

With `Nc1ccc(Oc2ncnc3sc4c(c23)CCCCC4)cc1` [Compound 5b, 4-((6,7,8,9-Tetrahydro-5H-cyclohepta[4,5]thieno[2,3-d]pyrimidin-4-yl)oxy)aniline], the melting point was above 300 °C. For the same compound, the half-maximal inhibitory concentration (IC50) in series [1] was determined as 510 ± 16 nM. Moreover, on EGFR [2], it took 42 ± 2 nM to reach half-maximal inhibition (IC50) and the “folds more potent than lapatinib, EGFR inhibitory activity” value turned out to be 1.24 folds. Also, in [3], the concentration for half-maximal inhibition (IC50) was 72700 ± 3980 nM and the Selectivity index worked out at 49.5. The IC50 with MCF-7 cell line stood at 1470 ± 110 nM.

On to `Brc1ccc(Oc2ncnc3sc4c(c23)CCCCC4)cc1` [Compound 5c, 4-(4-Bromophenoxy)-6,7,8,9-tetrahydro-5H-cyclohepta[4,5]thieno[2,3-d]pyrimidine], for which the melting point lay within 135 to 136 °C. The half-maximal inhibitory concentration (IC50) in the series with MCF-7 cell line is 6650 ± 410 nM.

`Clc1ccccc1Oc1ncnc2sc3c(c12)CCCCC3` [Compound 5d, 4-(2-Chlorophenoxy)-6,7,8,9-tetrahydro-5H-cyclohepta[4,5]thieno[2,3-d]pyrimidine]: the melting point is above 300 °C. In [1], the IC50 is 740 ± 25 nM. The IC50 against EGFR [2] came out at 70 ± 4 nM. In the series on MCF-7 cell line, the concentration for half-maximal inhibition (IC50) worked out at 1340 ± 70 nM.

For `Clc1ccc(Oc2ncnc3sc4c(c23)CCCCC4)cc1` [Compound 5e, 4-(4-Chlorophenoxy)-6,7,8,9-tetrahydro-5H-cyclohepta[4,5]thieno[2,3-d]pyrimidine], the melting point lay in the range of 115 to 116 °C. In addition, the half-inhibitory concentration (IC50) in series [1] is 340 ± 13 nM. The same compound displayed an IC50 on EGFR [2] of 69 ± 3 nM. Besides, in the series on MCF-7 cell line, the half-maximal inhibitory concentration (IC50) is 2760 ± 330 nM.

Take `Cc1cc(Oc2ncnc3sc4c(c23)CCCCC4)ccc1Cl` [Compound 5f, 4-(4-Chloro-3-methylphenoxy)-6,7,8,9-tetrahydro-5H-cyclohepta[4,5]thieno[2,3-d]pyrimidine]: in the series with MCF-7 cells [4], the “Apoptosis %Total” value turned out to be 17.58%, the “increase in annexin-V positive cells (early apoptosis) more than control” value is on record as 6.07 folds, the “increase in late apoptotic cells more than control” value is recorded as “about 24.66 folds” and the “increase in necrotic cells more than control” value is around 12.48 folds. Further, in the series with MCF-7 cells [4] (lower right quadrant), the “Apoptosis %Early” value is reported as 5.34%. In the series with MCF-7 cells [4] (upper left quadrant), this compound gave a Necrosis of 2.87%. Also, the “Apoptosis %Late” value in the series on MCF-7 cells [4] (upper right quadrant) worked out at 9.37%. In addition, in [1], the half-maximal inhibitory concentration (IC50) was determined as 1230 ± 28 nM. In the series with MCF-7 cells [5] (MCF-7, 0.66 µM), the “%G0–G1” value is 34.19%, the “%G2/M” value is listed as 32.65%, the “%Pre-G1” value was determined as 17.58% and the “%S” value amounted to 33.16%. In the series with MCF-7 cells [5] (MCF-7, IC50 concentration), the “increase in percentage of cells at G2/M phase compared to control” value was 4.75 folds and the “increase in percentage of cells at pre-G1 phase compared to control” value amounted to 11.80 folds. Further, at EGFR [2], the 50% inhibitory concentration (IC50) worked out at 28 ± 3 nM and the “folds more potent than erlotinib, EGFR inhibitory activity” value is reported as 1.18 folds. Moreover, in series [3], the 50% inhibitory concentration (IC50) came to 153000 ± 7570 nM and the Selectivity index is 232.1. Further, in the series with MCF-7 cell line, the 50% inhibitory concentration (IC50) was 660 ± 50 nM. Moreover, in the series with MCF-7 cell line (MCF-7), the “folds more potent than doxorubicin, anticancer activity” value came out at 4.64 folds and the “folds more potent than erlotinib, anticancer activity” value is recorded as 1.73 folds.

The compound `Fc1ccc(Oc2ncnc3sc4c(c23)CCCCC4)cc1` [Compound 5g, 4-(4-Fluorophenoxy)-6,7,8,9-tetrahydro-5H-cyclohepta[4,5]thieno[2,3-d]pyrimidine] showed a melting point above 300 °C. Besides, half-maximal inhibition against EGFR [2] (IC50) required 200 ± 11 nM. In addition, the IC50 in the series with MCF-7 cell line stood at 1230 ± 40 nM.

Take `Cc1ccccc1Oc1ncnc2sc3c(c12)CCCCC3` [Compound 5h, 4-(o-Tolyloxy)-6,7,8,9-tetrahydro-5H-cyclohepta[4,5]thieno[2,3-d]pyrimidine]: the melting point is above 300 °C. Further, the concentration for half-maximal inhibition (IC50) with MCF-7 cell line came out at 87400 ± 5400 nM.

In the case of `Cc1ccc(Oc2ncnc3sc4c(c23)CCCCC4)cc1` [Compound 5i, 4-(p-Tolyloxy)-6,7,8,9-tetrahydro-5H-cyclohepta[4,5]thieno[2,3-d]pyrimidine], the melting point was above 300 °C. In addition, the half-inhibitory concentration (IC50) in the series on MCF-7 cell line worked out at 21100 ± 2700 nM.

Compound `COc1ccc(Oc2ncnc3sc4c(c23)CCCCC4)cc1` [Compound 5j, 4-(4-Methoxyphenoxy)-6,7,8,9-tetrahydro-5H-cyclohepta[4,5]thieno[2,3-d]pyrimidine] came in with a melting point above 300 °C. Besides, the IC50 in the series on MCF-7 cell line stood at 5010 ± 310 nM.

Take `O=[N+]([O-])c1ccc(Oc2ncnc3sc4c(c23)CCCCC4)cc1` [Compound 5k, 4-(4-Nitrophenoxy)-6,7,8,9-tetrahydro-5H-cyclohepta[4,5]thieno[2,3-d]pyrimidine]: the melting point lay in the range of 166 to 169 °C. The same compound yielded an IC50 against EGFR [2] of 460 ± 18 nM. Also, in the series on MCF-7 cell line, the half-maximal inhibitory concentration (IC50) worked out at 2760 ± 190 nM.

Consider `COc1cccc2c1C(=O)c1c(O)c3c(c(O)c1C2=O)C[C@@](O)(C(=O)CO)C[C@@H]3O[C@H]1C[C@H](N)[C@H](O)[C@H](C)O1` [Doxorubicin, reference compound], for which the half-inhibitory concentration (IC50) came out at 27600 ± 1550 nM in [3] and 3060 ± 190 nM in the series with MCF-7 cell line.

As to `C#Cc1cccc(Nc2ncnc3cc(OCCOC)c(OCCOC)cc23)c1` [Erlotinib, reference compound], the IC50 in [3] stood at 69400 ± 4240 nM; in the series on MCF-7 cell line, 1140 ± 50 nM.

As for `CCOC(=O)Nc1ccc(Nc2ncnc3cc(OC)c(OC)cc23)cc1Cl` [III], on EGFR [6], the IC50 was 900 nM.

For `COC(=O)Nc1ccc(Nc2ncnc3cc(OC)c(OC)cc23)cc1` [II], the IC50 in the series with VEGFR-2 is 5800 nM.

Consider `COc1cc2nc(Cl)nc(Nc3ccc(S(=O)(=O)Nc4nccs4)cc3)c2cc1OC` [IV], for which the concentration for half-maximal inhibition (IC50) in the series with VEGFR-2 is 7790 nM.

Take `COc1cc2ncnc(Nc3ccc(Br)cc3F)c2cc1OC` [I]: in the series on VEGFR-2, the IC50 was 1650 nM.

Regarding `O=C(Nc1cccc(Br)c1)Nc1ccc(Oc2ncnc3sc4c(c23)CCCC4)cc1Cl` [VII], in the series with VEGFR-2, the IC50 is 15 nM.

`COc1cc2nc(Cl)nc(Nc3ccc(C(N)=O)cc3)c2cc1OC` [VI]: the IC50 with VEGFR-2 is 1170 nM.

On to `COc1cc2nc(Cl)nc(Nc3ccc(S(N)(=O)=O)cc3)c2cc1OC` [V], for which the IC50 with VEGFR-2 is 1020 nM.
